# Measurements published in article PMC6366404, “4-(3-Nitrophenyl)thiazol-2-ylhydrazone derivatives as antioxidants and selective hMAO-B inhibitors: synthesis, biological activity and computational analysis” (Journal of Enzyme Inhibition and Medicinal Chemistry, 2019).
# Tests used:
# [1] = DPPH radical scavenging activity
# hMAO-B = target: T1, hMAO-B (Homo sapiens, UniProt P27338); test: Lineweaver-Burk plots, mode of inhibition and Ki; type: biochemical
# T1 sequence (P27338 1-520): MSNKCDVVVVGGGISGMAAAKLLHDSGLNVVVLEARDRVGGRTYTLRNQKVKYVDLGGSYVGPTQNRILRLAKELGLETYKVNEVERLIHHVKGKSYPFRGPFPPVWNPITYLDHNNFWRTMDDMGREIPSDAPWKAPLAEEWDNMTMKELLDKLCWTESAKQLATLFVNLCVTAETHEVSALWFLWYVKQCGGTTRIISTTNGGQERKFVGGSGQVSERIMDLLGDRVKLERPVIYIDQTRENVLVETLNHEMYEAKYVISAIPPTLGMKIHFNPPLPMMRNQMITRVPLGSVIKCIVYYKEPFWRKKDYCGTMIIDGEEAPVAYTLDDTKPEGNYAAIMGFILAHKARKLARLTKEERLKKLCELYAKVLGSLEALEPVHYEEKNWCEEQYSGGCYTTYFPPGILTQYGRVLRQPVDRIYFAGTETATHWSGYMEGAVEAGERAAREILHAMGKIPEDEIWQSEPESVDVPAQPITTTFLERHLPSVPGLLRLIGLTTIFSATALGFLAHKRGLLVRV
# Description: To construct Lineweaver–Burk plots, the enzyme reactions were carried out to a volume of 500 µL and the concentration of MAO-B was 0.015 mg protein/mL. All enzyme reactions and activity measurements were carried out as described above for the dialysis experiments. The first plot was constructed in the absence of inhibitor, while the remaining five plots were constructed in the presence of the following concentrations: ¼ × IC50, ½ × IC50, ¾ × IC50, 1 × IC50 and 1¼ × IC50. For each line, kynuramine was used at concentrations of 15–250 μM. The Ki value was estimated from a plot of the slopes of the Lineweaver–Burk plots versus inhibitor concentration (x-axis intercept equals –Ki).
# To provide further support for the reversibility of MAO-B inhibition by compounds 4 and 37, a set of Lineweaver–Burk plots was constructed for each inhibitor at the following inhibitor concentrations: ¼ × IC50, ½ × IC50, ¾ × IC50, 1 × IC50, and 1¼ × IC50. The substrate, kynuramine, was used at 15–250 µM for each line. […] The lines of the plots intersect on the y-axis and a replot of the slopes versus inhibitor concentration yields a linear line, from which the enzyme-inhibitor dissociation constant (Ki) was estimated (Ki = −x-axis intercept).
# [2] = ABTS radical cation scavenging activity
smiles,measurement,setting,value
"CC(=NNc1nc(-c2cccc([N+](=O)[O-])c2)cs1)c1cccs1 [Compound 4, 1-(4-(3-Nitrophenyl)thiazol-2-yl)-2-(1-(thiophen-2-yl)ethylidene)hydrazine]",IC50,[1],1170 ± 10 µM
same,Ki,hMAO-B,0.0026 µM
same,Mode of MAO-B inhibition,hMAO-B; Lineweaver-Burk plots,competitive
same,IC50,[2],1040 ± 10 µM
